In data set [1] the target is T1, recombinant CYP2C9 (Homo sapiens, UniProt P11712).
T1 construct: purchased Corning Life Sciences B.V
As to the kind of experiment: Incubation with recombinant CYP2C9 enzymes. In kind it is in vitro ADME. The following applies: 1,000 nM psilocin, rec. CYP2C9. As for the experimental part: (§1) Corning UltraPool human liver microsomes (HLM) 150 (20 mg/mL), human intestinal microsomes (HIM) pool (10 mg/mL) as well as recombinant human CYP enzymes (with P450 oxidoreductase, OR) including CYP1A2+OR (0.5 nmol), CYP2B6+OR (0.5 nmol), CYP2C8+OR (1.0 nmol), CYP2C9*1+OR (1 nmol), CYP2C19+OR (0.5 nmol), CYP2D6*1+OR (0.5 nmol), CYP2E1+OR + cytochrome b5 (1 nmol), CYP3A4+OR + cytochrome b5 (0.5 nmol), MAO-A (5 mg/mL), MAO-B (5 mg/mL), and UGT1A10 (5 mg/mL) were purchased from Corning Life Sciences B.V (Amsterdam, Netherlands). All microsomes and recombinant enzyme solutions were aliquoted and stored at −80 °C until further use.
(§2) The total volume of the reaction mixture was 500 μL. […] Samples were either directly analyzed by liquid chromatography tandem mass spectrometry (LC-MS/MS) or briefly stored at −20°C until analysis.

Data set [2] has as its target T2, recombinant CYP2C8 (Homo sapiens, UniProt P10632).
T2 construct: purchased Corning Life Sciences B.V
Nature of the data set: Incubation with recombinant CYP2C8 enzymes. In kind it is in vitro ADME. The following applies: 1,000 nM psilocin, rec. CYP2C8. As for the experimental part: as §1, §2

Data set [3] concerns human liver microsomes (HLM). As to the kind of experiment: Glucuronidation with human liver microsomes. It counts as in vitro ADME. Particulars: 1,000 nM psilocin with HLM and UGT co-factors. As for the experimental part:
as §1, with “use. Co-factors including NADPH regenerating system solution A (25 mM NADP+, 66 mM glucose-6-phosphate, and 66 mM MgCl2 in water), NADPH regenerating system solution B (40 U/mL glucose-6-phosphate dehydrogenase in 5 mM sodium citrate), UGT reaction mix solution A (25 mM uridine 5′-diphospho-glucuronic acid in water), and UGT reaction mix solution B (250 mM Tris-HCl, 40 mM MgCl2, and 0.125 mg/mL alamethicin in water) were also obtained from Corning Life Sciences B.V.” for “use.”
The assay described in section 2.5.1 was adjusted to suit the glucuronidation system. […] HLM were diluted as described in section 2.5.1, while HIM or UGT1A10 enzymes were diluted 1:40 (end concentration […] and 0.125 mg/mL, respectively) in the reaction mix. […]
(Liver microsomes are a subcellular fraction often used to study metabolism.)

The target of data set [4] is T3, recombinant CYP2C19 (Homo sapiens, UniProt P33261).
T3 construct: purchased Corning Life Sciences B.V
T3 sequence (P33261 whole entry): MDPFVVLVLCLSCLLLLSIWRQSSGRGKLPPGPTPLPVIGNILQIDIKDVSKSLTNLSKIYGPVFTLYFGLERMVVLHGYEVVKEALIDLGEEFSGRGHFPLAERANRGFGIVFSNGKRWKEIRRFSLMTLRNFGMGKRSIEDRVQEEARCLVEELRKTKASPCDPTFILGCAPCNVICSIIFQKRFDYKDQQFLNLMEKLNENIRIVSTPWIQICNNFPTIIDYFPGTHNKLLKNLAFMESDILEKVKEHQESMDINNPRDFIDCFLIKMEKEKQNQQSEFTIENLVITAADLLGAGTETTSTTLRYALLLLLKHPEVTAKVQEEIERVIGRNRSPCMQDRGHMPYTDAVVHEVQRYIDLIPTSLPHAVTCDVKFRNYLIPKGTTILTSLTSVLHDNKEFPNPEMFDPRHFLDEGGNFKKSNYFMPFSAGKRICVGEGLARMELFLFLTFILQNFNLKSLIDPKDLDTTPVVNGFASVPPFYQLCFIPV
As to the kind of experiment: Incubation with recombinant CYP2C19 enzymes. In kind it is in vitro ADME. The following applies: 1,000 nM psilocin, rec. CYP2C19. As for the experimental part:
as §1, §2

In data set [5] the test system is human intestinal microsomes (HIM). Nature of the data set: Glucuronidation with human intestinal microsomes. Particulars: for psilocin concentration: absence of HIM. In kind it is in vitro ADME. As for the experimental part: as §1, with “use. Co-factors including NADPH regenerating system solution A (25 mM NADP+, 66 mM glucose-6-phosphate, and 66 mM MgCl2 in water), NADPH regenerating system solution B (40 U/mL glucose-6-phosphate dehydrogenase in 5 mM sodium citrate), UGT reaction mix solution A (25 mM uridine 5′-diphospho-glucuronic acid in water), and UGT reaction mix solution B (250 mM Tris-HCl, 40 mM MgCl2, and 0.125 mg/mL alamethicin in water) were also obtained from Corning Life Sciences B.V.” for “use.”
The assay described in section 2.5.1 was adjusted to suit the glucuronidation system. […] HLM were diluted as described in section 2.5.1, while HIM or UGT1A10 enzymes were diluted 1:40 (end concentration […] and 0.125 mg/mL, respectively) in the reaction mix. Sampling time points were adjusted to 0, 15, 30, 60, 90, 120, 180, and 240 min.

Data set [6] concerns the target T4, recombinant human UGT1A10 (Homo sapiens, UniProt Q9HAW8).
T4 construct: purchased Corning Life Sciences B.V
T4 sequence (Q9HAW8 26-530): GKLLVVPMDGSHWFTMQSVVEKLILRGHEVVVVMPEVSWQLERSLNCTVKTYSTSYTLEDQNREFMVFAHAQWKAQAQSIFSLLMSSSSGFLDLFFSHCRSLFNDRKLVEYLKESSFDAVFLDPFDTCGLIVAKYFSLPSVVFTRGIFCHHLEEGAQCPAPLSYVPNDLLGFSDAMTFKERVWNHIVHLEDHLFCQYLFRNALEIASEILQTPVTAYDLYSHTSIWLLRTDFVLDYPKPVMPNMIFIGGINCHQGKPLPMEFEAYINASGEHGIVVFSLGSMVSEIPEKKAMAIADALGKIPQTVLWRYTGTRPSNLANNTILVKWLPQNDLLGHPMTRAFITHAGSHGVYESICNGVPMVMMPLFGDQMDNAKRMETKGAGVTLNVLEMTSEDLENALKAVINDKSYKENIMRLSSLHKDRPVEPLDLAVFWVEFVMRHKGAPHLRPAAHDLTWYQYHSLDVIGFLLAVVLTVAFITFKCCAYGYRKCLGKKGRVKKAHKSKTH
Nature of the data set: Glucuronidation with recombinant UGT1A10. In kind it is in vitro ADME. Particulars: for psilocin concentration (mean ± SD): 1,000 nM psilocin. As for the experimental part:
as §1
The assay described in section 2.5.1 was adjusted to suit the glucuronidation system.

Data set [7] has as its system dopamine (DAT) transporter. Details: method as in Rickli et al., 2016. Particulars: ref Rickli et al., 2016; cited from earlier work.
Data set [8] addresses T5, recombinant CYP1A2 (Homo sapiens, UniProt P05177).
T5 construct: purchased Corning Life Sciences B.V
Nature of the data set: Incubation with recombinant CYP1A2 enzymes. In kind it is in vitro ADME. Particulars: 1,000 nM psilocin, rec. CYP1A2. As for the experimental part: as §1, §2

Data set [9] deals with T6, recombinant CYP2B6 (Homo sapiens, UniProt P20813).
T6 construct: purchased Corning Life Sciences B.V
T6 sequence (P20813 whole entry): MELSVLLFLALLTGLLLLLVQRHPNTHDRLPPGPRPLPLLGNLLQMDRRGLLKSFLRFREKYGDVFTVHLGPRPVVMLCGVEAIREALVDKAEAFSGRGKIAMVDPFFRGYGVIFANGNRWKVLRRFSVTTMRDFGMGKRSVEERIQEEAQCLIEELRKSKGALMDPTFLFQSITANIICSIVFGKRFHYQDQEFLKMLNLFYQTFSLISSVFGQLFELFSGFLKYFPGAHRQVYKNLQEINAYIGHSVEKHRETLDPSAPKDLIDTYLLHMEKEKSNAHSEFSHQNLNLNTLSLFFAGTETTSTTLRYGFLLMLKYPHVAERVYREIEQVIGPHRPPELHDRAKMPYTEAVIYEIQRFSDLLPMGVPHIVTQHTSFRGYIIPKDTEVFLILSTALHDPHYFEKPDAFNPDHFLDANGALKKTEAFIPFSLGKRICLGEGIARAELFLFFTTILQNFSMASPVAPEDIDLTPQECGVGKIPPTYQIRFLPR
Nature of the data set: Incubation with recombinant CYP2B6 enzymes. In kind it is in vitro ADME. The following applies: 1,000 nM psilocin, rec. CYP2B6. As for the experimental part: as §1, §2

The test system of data set [10] is norepinephrine transporters (NET). Further details: method as in Rickli et al., 2016. Particulars: ref Rickli et al., 2016; cited from earlier work.
In data set [11] the target is T7, recombinant CYP2E1 (Homo sapiens, UniProt P05181).
T7 construct: purchased Corning Life Sciences B.V
T7 sequence (P05181 whole entry): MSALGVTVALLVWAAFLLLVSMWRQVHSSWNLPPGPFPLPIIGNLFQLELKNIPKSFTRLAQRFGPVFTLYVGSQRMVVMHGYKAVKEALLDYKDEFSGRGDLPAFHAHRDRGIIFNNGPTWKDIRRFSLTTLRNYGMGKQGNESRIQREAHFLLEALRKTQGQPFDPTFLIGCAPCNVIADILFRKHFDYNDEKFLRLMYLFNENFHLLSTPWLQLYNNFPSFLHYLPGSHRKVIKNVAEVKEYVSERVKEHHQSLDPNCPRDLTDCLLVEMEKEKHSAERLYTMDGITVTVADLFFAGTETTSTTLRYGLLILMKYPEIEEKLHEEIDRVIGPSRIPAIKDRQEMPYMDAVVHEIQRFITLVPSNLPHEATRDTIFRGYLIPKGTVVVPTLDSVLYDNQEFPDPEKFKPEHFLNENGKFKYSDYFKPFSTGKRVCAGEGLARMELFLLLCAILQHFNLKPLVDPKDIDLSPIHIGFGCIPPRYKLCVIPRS
Nature of the data set: Incubation with recombinant CYP2E1 enzymes. In kind it is in vitro ADME. Particulars: 1,000 nM psilocin, rec. CYP2E1. As for the experimental part:
as §1, §2

The subject of data set [12] is serotonin transporter (SERT). Further details: method as in Rickli et al., 2016. Particulars: ref Rickli et al., 2016; cited from earlier work.

SMILES strings stand for the structures.

The source of these data is paper PMC11089204 (Frontiers in Pharmacology, 2024).

T2 sequence (P10632 whole entry): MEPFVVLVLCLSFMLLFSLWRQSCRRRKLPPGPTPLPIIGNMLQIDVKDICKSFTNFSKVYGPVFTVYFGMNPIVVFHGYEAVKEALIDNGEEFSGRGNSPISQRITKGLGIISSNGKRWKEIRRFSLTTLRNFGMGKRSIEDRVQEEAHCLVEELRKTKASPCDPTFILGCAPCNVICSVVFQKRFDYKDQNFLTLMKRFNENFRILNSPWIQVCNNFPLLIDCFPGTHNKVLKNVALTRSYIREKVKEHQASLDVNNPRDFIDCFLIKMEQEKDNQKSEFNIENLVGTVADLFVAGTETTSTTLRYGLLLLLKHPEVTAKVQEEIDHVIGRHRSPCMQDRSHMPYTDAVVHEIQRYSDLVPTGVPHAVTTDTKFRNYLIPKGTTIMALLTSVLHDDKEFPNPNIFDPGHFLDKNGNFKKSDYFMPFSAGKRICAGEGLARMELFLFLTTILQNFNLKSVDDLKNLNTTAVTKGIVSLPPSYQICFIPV
T5 sequence (P05177 2-516 limits assumed): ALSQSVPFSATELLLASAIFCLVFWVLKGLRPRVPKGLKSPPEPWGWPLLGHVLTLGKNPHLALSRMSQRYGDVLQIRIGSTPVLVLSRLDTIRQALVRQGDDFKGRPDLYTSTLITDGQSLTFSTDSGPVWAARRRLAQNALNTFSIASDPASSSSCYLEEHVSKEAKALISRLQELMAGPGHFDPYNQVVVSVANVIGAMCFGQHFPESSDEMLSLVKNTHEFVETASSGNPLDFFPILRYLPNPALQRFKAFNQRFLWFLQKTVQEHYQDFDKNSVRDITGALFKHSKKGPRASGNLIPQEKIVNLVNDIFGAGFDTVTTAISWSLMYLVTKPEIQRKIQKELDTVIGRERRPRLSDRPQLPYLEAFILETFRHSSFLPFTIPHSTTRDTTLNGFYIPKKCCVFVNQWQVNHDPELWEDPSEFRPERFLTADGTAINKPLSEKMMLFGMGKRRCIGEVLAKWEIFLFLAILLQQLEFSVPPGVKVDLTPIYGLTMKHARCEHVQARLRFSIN
T1 sequence (P11712 whole entry): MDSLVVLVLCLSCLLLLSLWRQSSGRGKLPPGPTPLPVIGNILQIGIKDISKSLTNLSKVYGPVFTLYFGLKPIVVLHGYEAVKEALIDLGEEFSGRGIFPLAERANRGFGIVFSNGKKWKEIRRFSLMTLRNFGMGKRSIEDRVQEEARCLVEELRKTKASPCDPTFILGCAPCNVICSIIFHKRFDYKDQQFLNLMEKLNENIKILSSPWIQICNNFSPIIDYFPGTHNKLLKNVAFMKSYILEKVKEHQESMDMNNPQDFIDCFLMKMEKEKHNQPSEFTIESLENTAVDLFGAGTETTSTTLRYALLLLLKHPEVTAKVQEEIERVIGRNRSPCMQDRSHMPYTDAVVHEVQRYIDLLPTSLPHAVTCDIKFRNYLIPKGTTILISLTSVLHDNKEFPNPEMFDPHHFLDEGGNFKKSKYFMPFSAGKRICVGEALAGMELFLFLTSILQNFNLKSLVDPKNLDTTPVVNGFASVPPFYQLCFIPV

As to `CN(C)CCc1c[nH]c2cccc(O)c12` [psilocin, 4-hydroxy-N,N-dimethyltryptamine], the metabolism of psilocin entry in data set [1], in data set [2], in data set [4], in [8], in data set [9] and in [11] was “did not metabolize” in each case. Moreover, in data set [3], the glucuronidation of psilocin result is “No glucuronidation was observed”. The “decrease of psilocin concentration through glucuronidation” value in data set [5] (1,000 nM psilocin, HIM, 240 min) is on record as 37%. In addition, the “psilocin concentration (mean ± SD)” value in data set [5] (HIM, t = 0) is listed as 1,085 ± 157 nM; in [5] (HIM, t = 240), 684 ± 53 nM; in data set [6] (rec. UGT1A10, t = 0 min), 1,029 ± 60 nM; in [6] (rec. UGT1A10, t = 240 min) it was 979 ± 95 nM. For the same compound, the psilocin concentration was 980 ± 77 nM in [5] (t = 0); 893 ± 91 nM in data set [5] (t = 240); 980 ± 77 nM in [6] (absence of UGT1A10, t = 0); 893 ± 91 nM in data set [6] (absence of UGT1A10, t = 240). The “inhibition of DAT” value in [7] is listed as “not”. Moreover, the “inhibition of NET” value in data set [10] is given as “not”. Also, in [12], the “inhibition of SERT” value is on record as “moderately inhibits”.
